Experimental data reported in ChEMBL document CHEMBL3991601, “The target landscape of clinical kinase drugs” (Science, 2017).
Active and inactive are the calls of the source.

Key:
[1] = biological target: T1, Isoleucine--tRNA ligase, mitochondrial (Homo sapiens, UniProt Q9NSE4)
T1 sequence (Q9NSE4 whole entry): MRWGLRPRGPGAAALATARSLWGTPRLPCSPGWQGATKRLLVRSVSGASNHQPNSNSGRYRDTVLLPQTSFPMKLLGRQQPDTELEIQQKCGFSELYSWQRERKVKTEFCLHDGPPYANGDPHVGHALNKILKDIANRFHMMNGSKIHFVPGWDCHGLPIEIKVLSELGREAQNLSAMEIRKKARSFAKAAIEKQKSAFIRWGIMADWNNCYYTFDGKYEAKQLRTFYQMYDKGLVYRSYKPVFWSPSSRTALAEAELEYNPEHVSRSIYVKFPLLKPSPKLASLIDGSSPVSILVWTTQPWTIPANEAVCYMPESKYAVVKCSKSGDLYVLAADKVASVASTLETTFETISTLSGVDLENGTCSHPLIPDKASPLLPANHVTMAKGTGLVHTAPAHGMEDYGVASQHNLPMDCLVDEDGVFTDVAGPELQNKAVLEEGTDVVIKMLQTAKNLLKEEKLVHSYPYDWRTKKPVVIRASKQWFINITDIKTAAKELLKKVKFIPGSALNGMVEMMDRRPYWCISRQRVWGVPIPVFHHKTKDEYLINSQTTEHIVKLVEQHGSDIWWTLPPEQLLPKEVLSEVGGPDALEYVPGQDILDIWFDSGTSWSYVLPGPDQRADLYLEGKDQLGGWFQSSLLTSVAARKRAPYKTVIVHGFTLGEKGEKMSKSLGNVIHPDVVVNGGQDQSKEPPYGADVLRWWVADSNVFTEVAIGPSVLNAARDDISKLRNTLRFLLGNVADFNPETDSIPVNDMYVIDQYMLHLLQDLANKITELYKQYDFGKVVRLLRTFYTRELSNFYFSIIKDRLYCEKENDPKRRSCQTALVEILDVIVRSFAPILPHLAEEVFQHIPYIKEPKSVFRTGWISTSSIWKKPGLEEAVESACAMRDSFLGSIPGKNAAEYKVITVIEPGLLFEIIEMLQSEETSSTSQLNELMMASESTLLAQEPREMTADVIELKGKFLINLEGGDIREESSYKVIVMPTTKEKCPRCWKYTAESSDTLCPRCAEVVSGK

[2] = biological target: T2, Electron transfer flavoprotein subunit beta (Homo sapiens, UniProt P38117)
T2 sequence (P38117 whole entry): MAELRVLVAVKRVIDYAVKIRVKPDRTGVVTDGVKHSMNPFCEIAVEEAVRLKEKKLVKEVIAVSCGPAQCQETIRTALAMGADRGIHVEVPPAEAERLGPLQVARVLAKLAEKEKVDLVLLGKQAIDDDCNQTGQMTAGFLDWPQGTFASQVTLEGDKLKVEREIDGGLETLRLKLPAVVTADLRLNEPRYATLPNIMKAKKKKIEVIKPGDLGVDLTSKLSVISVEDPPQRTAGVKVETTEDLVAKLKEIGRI

[3] = biological target: ALK tyrosine kinase receptor (Homo sapiens, UniProt Q9UM73); type: subcellular, K-562, COLO 205, SK-N-BE(2) and MV-4-11, Cell lysate; details: read-out: Kd apparent
[4] = biological target: Serine/threonine-protein kinase pim-2 (Homo sapiens, UniProt Q9P1W9)
[5] = biological target: Serine/threonine-protein kinase 38 (Homo sapiens, UniProt Q15208)
[6] = biological target: Serine/threonine-protein kinase N3 (Homo sapiens, UniProt Q6P5Z2)
[7] = biological target: Cyclin-dependent kinase 10 (Homo sapiens, UniProt Q15131)
[8] = biological target: Tyrosine-protein kinase Fgr (Homo sapiens, UniProt P09769)
[9] = biological target: T3, Protein kinase C zeta type (Homo sapiens, UniProt Q05513)
T3 sequence (Q05513 whole entry): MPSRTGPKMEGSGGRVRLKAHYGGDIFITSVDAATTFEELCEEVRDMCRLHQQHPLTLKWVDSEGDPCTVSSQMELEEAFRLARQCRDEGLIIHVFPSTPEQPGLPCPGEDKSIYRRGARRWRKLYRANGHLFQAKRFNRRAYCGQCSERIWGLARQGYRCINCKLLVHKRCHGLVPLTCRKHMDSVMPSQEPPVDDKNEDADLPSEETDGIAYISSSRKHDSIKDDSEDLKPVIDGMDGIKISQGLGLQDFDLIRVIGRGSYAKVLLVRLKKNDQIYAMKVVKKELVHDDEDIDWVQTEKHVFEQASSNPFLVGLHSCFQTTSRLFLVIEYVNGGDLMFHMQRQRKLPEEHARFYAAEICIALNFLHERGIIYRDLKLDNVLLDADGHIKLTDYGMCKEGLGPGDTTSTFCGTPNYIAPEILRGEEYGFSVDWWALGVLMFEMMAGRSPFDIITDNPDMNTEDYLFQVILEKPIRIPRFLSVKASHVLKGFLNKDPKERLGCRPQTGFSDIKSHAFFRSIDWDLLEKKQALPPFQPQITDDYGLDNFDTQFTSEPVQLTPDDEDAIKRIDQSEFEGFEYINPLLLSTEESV

[10] = biological target: Dual specificity tyrosine-phosphorylation-regulated kinase 1B (Homo sapiens, UniProt Q9Y463)
[11] = biological target: T4, Long-chain-fatty-acid--CoA ligase 5 (Homo sapiens, UniProt Q9ULC5)
T4 sequence (Q9ULC5 whole entry): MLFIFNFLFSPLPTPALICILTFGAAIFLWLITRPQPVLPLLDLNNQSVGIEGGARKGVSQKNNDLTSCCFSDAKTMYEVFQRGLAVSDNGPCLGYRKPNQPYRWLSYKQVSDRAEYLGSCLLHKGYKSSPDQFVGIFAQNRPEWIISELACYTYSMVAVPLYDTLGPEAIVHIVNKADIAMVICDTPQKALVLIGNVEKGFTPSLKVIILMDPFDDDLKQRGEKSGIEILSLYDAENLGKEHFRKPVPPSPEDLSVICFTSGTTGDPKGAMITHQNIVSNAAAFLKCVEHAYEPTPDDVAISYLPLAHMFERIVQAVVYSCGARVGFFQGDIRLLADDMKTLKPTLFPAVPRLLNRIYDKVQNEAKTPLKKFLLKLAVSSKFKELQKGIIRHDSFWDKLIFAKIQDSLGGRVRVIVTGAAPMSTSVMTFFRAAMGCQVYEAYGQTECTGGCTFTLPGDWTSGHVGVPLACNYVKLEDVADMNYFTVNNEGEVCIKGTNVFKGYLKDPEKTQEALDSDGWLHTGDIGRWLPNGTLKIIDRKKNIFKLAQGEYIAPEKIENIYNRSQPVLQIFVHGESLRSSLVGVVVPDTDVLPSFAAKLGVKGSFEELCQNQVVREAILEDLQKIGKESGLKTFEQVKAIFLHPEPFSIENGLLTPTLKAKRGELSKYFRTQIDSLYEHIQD

Measured: Kd
Further: in the data inactive means no Kd found up to 30 µM.

Serine/threonine-protein kinase pim-2, sequence (Q9P1W9 whole entry): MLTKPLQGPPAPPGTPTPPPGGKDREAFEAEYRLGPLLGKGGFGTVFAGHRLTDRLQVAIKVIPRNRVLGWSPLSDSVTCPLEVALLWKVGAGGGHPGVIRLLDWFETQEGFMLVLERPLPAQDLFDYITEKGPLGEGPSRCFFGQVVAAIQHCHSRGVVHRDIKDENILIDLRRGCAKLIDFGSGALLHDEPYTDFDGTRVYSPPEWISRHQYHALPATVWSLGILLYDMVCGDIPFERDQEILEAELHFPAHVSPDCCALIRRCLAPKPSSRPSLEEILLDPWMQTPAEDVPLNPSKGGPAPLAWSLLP
ALK tyrosine kinase receptor, sequence (Q9UM73 whole entry): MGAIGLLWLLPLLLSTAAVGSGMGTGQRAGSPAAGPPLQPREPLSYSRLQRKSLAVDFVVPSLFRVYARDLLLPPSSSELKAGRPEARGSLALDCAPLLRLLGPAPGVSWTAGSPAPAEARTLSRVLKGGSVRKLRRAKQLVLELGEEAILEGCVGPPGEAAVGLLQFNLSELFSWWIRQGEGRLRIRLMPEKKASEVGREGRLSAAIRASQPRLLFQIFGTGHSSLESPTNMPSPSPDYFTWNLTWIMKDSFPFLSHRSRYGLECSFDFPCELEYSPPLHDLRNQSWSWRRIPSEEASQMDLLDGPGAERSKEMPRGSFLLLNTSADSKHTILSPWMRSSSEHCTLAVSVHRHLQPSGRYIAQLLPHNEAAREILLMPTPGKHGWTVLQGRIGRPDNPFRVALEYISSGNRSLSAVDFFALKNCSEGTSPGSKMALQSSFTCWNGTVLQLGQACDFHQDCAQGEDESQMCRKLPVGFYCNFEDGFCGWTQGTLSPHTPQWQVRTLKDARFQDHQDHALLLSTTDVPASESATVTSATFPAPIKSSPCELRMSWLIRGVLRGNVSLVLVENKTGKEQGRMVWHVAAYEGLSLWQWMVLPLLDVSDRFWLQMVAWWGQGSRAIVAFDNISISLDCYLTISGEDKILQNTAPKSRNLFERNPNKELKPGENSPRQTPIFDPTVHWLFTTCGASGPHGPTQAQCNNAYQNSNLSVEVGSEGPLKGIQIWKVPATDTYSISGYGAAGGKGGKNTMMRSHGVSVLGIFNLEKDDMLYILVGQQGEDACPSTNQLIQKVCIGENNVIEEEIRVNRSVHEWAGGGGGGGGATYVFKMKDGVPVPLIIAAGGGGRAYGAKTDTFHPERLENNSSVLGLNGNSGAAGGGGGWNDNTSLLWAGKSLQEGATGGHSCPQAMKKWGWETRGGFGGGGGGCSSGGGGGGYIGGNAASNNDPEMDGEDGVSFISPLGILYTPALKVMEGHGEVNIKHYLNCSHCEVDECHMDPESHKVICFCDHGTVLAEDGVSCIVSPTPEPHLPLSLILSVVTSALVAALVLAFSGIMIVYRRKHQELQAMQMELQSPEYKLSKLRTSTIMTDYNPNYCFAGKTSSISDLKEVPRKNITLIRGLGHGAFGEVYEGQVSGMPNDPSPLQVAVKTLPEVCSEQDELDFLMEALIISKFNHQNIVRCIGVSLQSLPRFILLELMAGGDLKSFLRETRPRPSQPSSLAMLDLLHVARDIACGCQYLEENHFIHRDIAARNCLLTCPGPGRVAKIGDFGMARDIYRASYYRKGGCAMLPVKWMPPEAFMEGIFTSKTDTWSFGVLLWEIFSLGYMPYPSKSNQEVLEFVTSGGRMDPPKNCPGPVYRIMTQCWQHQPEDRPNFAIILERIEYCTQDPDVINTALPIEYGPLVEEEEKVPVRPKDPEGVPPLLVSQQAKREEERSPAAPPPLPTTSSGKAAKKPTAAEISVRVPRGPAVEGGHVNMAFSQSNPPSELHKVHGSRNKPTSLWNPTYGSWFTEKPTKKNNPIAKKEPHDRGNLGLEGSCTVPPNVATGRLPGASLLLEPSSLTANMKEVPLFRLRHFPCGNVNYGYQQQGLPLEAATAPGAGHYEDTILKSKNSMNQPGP
Cyclin-dependent kinase 10, sequence (Q15131 whole entry): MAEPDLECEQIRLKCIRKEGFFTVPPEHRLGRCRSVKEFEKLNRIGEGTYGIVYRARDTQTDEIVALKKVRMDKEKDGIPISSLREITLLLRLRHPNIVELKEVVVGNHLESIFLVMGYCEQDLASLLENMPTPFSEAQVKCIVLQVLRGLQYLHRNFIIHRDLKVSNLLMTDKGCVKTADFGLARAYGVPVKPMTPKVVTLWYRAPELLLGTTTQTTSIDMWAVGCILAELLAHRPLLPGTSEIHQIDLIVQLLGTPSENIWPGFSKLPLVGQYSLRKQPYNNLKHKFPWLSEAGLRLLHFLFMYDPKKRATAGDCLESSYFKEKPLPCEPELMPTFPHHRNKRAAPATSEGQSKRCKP
Tyrosine-protein kinase Fgr, sequence (P09769 whole entry): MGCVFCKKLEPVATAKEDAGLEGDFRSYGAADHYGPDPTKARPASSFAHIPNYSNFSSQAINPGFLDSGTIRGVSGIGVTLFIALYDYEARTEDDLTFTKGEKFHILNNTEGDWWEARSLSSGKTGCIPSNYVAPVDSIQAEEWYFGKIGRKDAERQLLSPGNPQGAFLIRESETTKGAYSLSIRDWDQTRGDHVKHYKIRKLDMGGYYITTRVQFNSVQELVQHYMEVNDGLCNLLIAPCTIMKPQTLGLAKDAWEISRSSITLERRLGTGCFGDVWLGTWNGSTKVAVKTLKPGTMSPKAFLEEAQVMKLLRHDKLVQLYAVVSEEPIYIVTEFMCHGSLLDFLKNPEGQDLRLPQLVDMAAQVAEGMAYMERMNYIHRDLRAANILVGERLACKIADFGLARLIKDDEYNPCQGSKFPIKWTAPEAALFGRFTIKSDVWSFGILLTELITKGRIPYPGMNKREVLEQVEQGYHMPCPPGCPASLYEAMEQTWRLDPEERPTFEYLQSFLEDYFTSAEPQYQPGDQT
Serine/threonine-protein kinase 38, sequence (Q15208 whole entry): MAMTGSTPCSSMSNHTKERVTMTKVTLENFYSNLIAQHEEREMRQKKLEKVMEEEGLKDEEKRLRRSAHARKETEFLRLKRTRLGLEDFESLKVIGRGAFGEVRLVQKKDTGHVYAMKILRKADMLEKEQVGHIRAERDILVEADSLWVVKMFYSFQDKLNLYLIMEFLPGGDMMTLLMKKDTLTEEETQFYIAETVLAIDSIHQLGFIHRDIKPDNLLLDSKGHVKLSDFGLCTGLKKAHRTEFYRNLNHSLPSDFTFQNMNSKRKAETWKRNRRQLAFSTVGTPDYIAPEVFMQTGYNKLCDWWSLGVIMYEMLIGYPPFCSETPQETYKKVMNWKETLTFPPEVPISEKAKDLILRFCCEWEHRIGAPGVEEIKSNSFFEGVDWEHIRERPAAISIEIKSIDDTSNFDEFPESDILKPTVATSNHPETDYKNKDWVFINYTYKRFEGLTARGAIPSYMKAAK
Dual specificity tyrosine-phosphorylation-regulated kinase 1B, sequence (Q9Y463 whole entry): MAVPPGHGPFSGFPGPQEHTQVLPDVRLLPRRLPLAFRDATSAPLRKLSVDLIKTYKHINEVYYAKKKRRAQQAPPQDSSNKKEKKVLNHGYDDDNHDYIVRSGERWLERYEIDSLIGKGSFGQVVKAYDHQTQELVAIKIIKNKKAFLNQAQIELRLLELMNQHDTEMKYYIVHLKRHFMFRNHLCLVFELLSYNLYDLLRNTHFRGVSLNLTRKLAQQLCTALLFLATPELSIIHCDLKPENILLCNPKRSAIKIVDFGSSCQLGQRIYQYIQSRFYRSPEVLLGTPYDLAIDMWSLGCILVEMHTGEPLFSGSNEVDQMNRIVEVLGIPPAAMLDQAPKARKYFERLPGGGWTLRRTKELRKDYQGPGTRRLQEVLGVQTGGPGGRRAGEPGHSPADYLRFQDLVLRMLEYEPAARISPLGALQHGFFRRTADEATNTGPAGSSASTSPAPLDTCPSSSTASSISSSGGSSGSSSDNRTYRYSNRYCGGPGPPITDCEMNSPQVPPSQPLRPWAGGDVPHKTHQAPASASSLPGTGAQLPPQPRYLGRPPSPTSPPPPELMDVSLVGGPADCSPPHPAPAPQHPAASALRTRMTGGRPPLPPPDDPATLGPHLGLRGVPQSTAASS
Serine/threonine-protein kinase N3, sequence (Q6P5Z2 whole entry): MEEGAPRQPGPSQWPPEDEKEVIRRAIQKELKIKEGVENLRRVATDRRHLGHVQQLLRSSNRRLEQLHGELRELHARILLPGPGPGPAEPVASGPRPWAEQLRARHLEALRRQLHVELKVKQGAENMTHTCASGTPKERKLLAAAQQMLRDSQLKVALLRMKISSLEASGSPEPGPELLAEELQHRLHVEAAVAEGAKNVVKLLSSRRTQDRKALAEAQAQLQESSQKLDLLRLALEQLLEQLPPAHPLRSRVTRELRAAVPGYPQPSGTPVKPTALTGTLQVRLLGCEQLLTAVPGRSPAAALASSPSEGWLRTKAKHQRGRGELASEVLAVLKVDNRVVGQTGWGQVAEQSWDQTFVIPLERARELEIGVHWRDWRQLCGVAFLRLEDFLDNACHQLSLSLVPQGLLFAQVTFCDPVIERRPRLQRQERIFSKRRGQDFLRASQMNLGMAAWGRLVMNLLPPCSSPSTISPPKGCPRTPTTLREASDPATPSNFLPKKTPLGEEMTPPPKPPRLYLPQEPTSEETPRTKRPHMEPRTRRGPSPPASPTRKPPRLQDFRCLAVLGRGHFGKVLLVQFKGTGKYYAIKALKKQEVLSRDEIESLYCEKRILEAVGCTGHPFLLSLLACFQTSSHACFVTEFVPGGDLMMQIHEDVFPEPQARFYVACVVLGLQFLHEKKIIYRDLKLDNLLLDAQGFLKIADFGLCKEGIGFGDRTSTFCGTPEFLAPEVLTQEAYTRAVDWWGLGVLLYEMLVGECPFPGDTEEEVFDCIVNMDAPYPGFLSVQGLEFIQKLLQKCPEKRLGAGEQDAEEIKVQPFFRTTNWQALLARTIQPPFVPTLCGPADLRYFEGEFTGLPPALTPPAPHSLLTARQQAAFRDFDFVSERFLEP

CN(C[C@@H]1COCCO1)S(=O)(=O)Nc1ccc2ccc3ncc(-c4cnn(C)c4)cc3c(=O)c2c1 [MK-2461]
inactive: [1] > 30 µM | [2] > 30 µM | [3] > 30 µM | [4] > 30 µM | [5] > 30 µM

CC(=O)c1cnc2ccc(-c3cc(Cl)c(O)c(Cl)c3)nc2c1N[C@H]1CC[C@H](CN(C)C)CC1
inactive: [1] > 30 µM | [2] > 30 µM | [3] > 30 µM | [6] > 30 µM

CC(C)(C)c1nc(-c2cccc(NS(=O)(=O)c3c(F)cccc3F)c2F)c(-c2ccnc(N)n2)s1 [DABRAFENIB]
inactive: [1] > 30 µM | [7] > 30 µM | [2] > 30 µM | [9] > 30 µM | [6] > 30 µM | [4] > 30 µM | [10] > 30 µM
active: [8] 1.55 µM

CCn1cc(-c2ccnc3[nH]c(-c4cccc(CN(C)C)c4)cc23)c(-c2ccc(NC(=O)N(C)C)cc2)n1 [GSK-1070916]
inactive: [8] > 30 µM | [6] > 30 µM | [4] > 30 µM | [10] > 30 µM | [5] > 30 µM

CO[C@H]1C[C@@H]2CC[C@@H](C)[C@@](O)(O2)C(=O)C(=O)N2CCCC[C@H]2C(=O)O[C@H]([C@H](C)C[C@@H]2CC[C@@H](O)[C@H](OC)C2)CC(=O)[C@H](C)/C=C(\C)[C@@H](O)[C@@H](OC)C(=O)[C@H](C)C[C@H](C)/C=C/C=C/C=C/1C [SIROLIMUS]
inactive: [1] > 30 µM | [2] > 30 µM | [8] > 30 µM | [9] > 30 µM | [6] > 30 µM | [10] > 30 µM

Cc1cc(Nc2ncnc3ccc(NC4=NC(C)(C)CO4)cc23)ccc1Oc1ccn2ncnc2c1 [TUCATINIB]
inactive: [1] > 30 µM | [3] > 30 µM | [9] > 30 µM | [6] > 30 µM

O=C(Cc1ccc(-c2ccc(OCCN3CCOCC3)cc2)cn1)NCc1ccccc1 [TIRBANIBULIN]
inactive: [11] > 30 µM | [1] > 30 µM | [2] > 30 µM | [8] > 30 µM | [9] > 30 µM | [4] > 30 µM | [10] > 30 µM | [5] > 30 µM

CO[C@H]1C[C@@H]2CC[C@@H](C)[C@@](O)(O2)C(=O)C(=O)N2CCCC[C@H]2C(=O)O[C@H]([C@H](C)C[C@@H]2CC[C@@H](OP(C)(C)=O)[C@H](OC)C2)CC(=O)[C@H](C)/C=C(\C)[C@@H](O)[C@@H](OC)C(=O)[C@H](C)C[C@H](C)/C=C/C=C/C=C/1C [RIDAFOROLIMUS]
1.26 µM: [10]
inactive: [11] > 30 µM | [7] > 30 µM | [2] > 30 µM | [9] > 30 µM | [6] > 30 µM | [4] > 30 µM

COCC(=O)NC/C=C/c1ccc2ncnc(Nc3ccc(Oc4ccc(C)nc4)c(C)c3)c2c1 [CP-724714]
inactive: [11] > 30 µM | [1] > 30 µM | [2] > 30 µM | [3] > 30 µM | [9] > 30 µM | [6] > 30 µM | [4] > 30 µM

COc1ncc(-c2ccc3nccc(-c4ccnnc4)c3c2)cc1NS(=O)(=O)c1ccc(F)cc1F [OMIPALISIB]
inactive: [11] > 30 µM | [1] > 30 µM | [2] > 30 µM | [3] > 30 µM | [9] > 30 µM | [5] > 30 µM

Cc1cccc(-c2nn3c(c2-c2ccnc4ccc(C(N)=O)cc24)CCC3)n1 [GALUNISERTIB]
inactive: [11] > 30 µM | [1] > 30 µM | [2] > 30 µM | [3] > 30 µM | [4] > 30 µM | [10] > 30 µM

O=C(Nc1nc2cccc(-c3ccc(CN4CCS(=O)(=O)CC4)cc3)n2n1)C1CC1 [FILGOTINIB]
inactive: [1] > 30 µM | [2] > 30 µM | [3] > 30 µM | [4] > 30 µM

COCc1c(-c2ccc(NC(=O)Nc3cc(C(F)(F)F)ccc3F)c(F)c2)c2c(N)ncnn2c1CN1CCOCC1
inactive: [11] > 30 µM | [1] > 30 µM | [2] > 30 µM | [3] > 30 µM | [6] > 30 µM | [5] > 30 µM

Nc1ncnc2c1c(-c1cccc(OCc3ccccc3)c1)cn2[C@H]1C[C@@H](CN2CCC2)C1 [AEW-541]
0.023 µM: [6]
inactive: [11] > 30 µM | [3] > 30 µM | [4] > 30 µM

CO[C@H]1C[C@@H]2CC[C@@H](C)[C@@](O)(O2)C(=O)C(=O)N2CCCC[C@H]2C(=O)O[C@H]([C@H](C)C[C@@H]2CC[C@@H](OC(=O)C(C)(CO)CO)[C@H](OC)C2)CC(=O)[C@H](C)/C=C(\C)[C@@H](O)[C@@H](OC)C(=O)[C@H](C)C[C@H](C)/C=C/C=C/C=C/1C [TEMSIROLIMUS]
inactive: [11] > 30 µM | [1] > 30 µM | [7] > 30 µM | [2] > 30 µM | [8] > 30 µM | [3] > 30 µM | [9] > 30 µM | [6] > 30 µM | [4] > 30 µM

O=C(Nc1c[nH]nc1-c1nc2cc(CN3CCOCC3)ccc2[nH]1)NC1CC1 [AT-9283]
inactive: [11] > 30 µM | [1] > 30 µM | [2] > 30 µM | [3] > 30 µM | [6] > 30 µM | [4] > 30 µM | [5] > 30 µM
0.009 µM: [7]

CCn1c(C(=O)N(C2CC2)C2CC2)cc2c3c(ncn3C)c(Nc3cc(C)n(C)n3)nc21 [BMS-911543]
inactive: [11] > 30 µM | [1] > 30 µM | [2] > 30 µM | [3] > 30 µM
